Tests used:
Format in all cases: in vivo
Apogee wheat [1] = experiment: Heat stress tolerance in wheat following ACC application at Feekes stage 5 (Example 2); conditions: heat stress 34/28° C. 4 days
Procedure: Apogee wheat was seeded into ProMix BX (Premier Horticulture) and grown in a growth cabinet under the following conditions: 24/18° C. day/night temperature under a 16/8 hour light/dark photoperiod. Plants were evaluated at Feekes stage 5 following the first set of growth conditions on Nov. 15, 2019. Next, spray applications of 0, 0 or 100 ppm ACC (n=8) were made using a track sprayer. Next, 2 days following treatment, one set of control plants (“treatment control”) and the 100 ppm ACC plants were transferred to a second growth cabinet at 34/28° C. day/night temperature under a 16/8-hour light/dark photoperiod for 4 days. These conditions constitute significant heat stress. The other set of control plants (“stress control”) remained in the first growth cabinet. Finally, the plants were then returned to the first growth cabinet for about 14 days where plants reached Feekes stage 10.1 (head emergence). Plants were then destructively harvested and measured for total spike number, fresh weight, total reproductive tiller number, percent reproductive tillers, A canopy density and total dry weight. Percent reproductive tillers is calculated by dividing the number of reproductive tillers by the total number of spikes at harvest. A canopy density is calculated by subtracting the canopy density at treatment from the canopy density at harvest.

Apogee wheat [2] = experiment: Heat stress tolerance in wheat following ACC application at Feekes stage 5 (Example 3); conditions: heat stress 34/28° C. 4 days; for % Reproductive Tillers / Fresh Weight / Total Dry Weight / Total Spike Number / Total Tiller Number / Δ Canopy Density: n = 8; for % Reproductive Tillers, percent increase over stress control / Fresh Weight, percent increase over stress control / Total Dry Weight, percent increase over stress control / Total Spike Number, percent increase over stress control / Total Tiller Number, percent increase over stress control / Δ Canopy Density, percent increase over stress control: vs stress control (no heat); for % Reproductive Tillers, percent increase over treatment control / Fresh Weight, percent increase over treatment control / Total Dry Weight, percent increase over treatment control / Total Spike Number, percent increase over treatment control / Total Tiller Number, percent increase over treatment control / Δ Canopy Density, percent increase over treatment control: vs treatment control (heat, no ACC)
Procedure: Apogee wheat was seeded into ProMix BX (Premier Horticulture) and grown in a growth cabinet under the following conditions: 24/18° C. day/night temperature under a 16/8 hour light/dark photoperiod. Plants were at Feekes stage 5 following the first set of growth conditions. Next, spray applications of 0, 0, 100 or 300 ppm ACC (n=8) were made using a track sprayer on Oct. 4, 2019. […] These conditions constitute significant heat stress. The other set of control plants (“stress control”) remained in the first growth cabinet. Finally, the plants were then returned to the first growth cabinet for about 14 days where plants reached Feekes stage 10.1 (head emergence). Plants were then destructively harvested and measured for total spike number, fresh weight, total reproductive tiller number, percent reproductive tillers, A canopy density and total dry weight. Percent reproductive tillers is calculated by dividing the number of reproductive tillers by the total number of spikes at harvest. A canopy density is calculated by subtracting the canopy density at treatment from the canopy density at harvest.

Williams 82 soybean = experiment: Heat stress tolerance in soybean following ACC application; conditions: heat stress 34/30° C. six days; for Canopy Density / Fresh Weight / Height / Total Dry Weight / Δ Canopy Density: n = 5; for Canopy Density, percent increase over stress control / Fresh Weight, percent increase over stress control / Height, percent increase over stress control / Total Dry Weight, percent increase over stress control / Δ Canopy Density, percent increase over stress control: vs stress control; for Canopy Density, percent increase over treatment control / Fresh Weight, percent increase over treatment control / Height, percent increase over treatment control / Total Dry Weight, percent increase over treatment control / Δ Canopy Density, percent increase over treatment control: vs treatment control
Procedure: Williams 82 soybean was seeded into ProMix BX (Premier Horticulture) and grown in a greenhouse. […] Next, spray applications of […] (n=5) were made using a track sprayer on Oct. 9, 2020. Following spraying, plants were moved to a growth cabinet under the following conditions: 24/18 C day night temperatures under a 16/8 light dark period. Next, 3 days following treatment, half of the plants were transferred to a second growth cabinet at 34/30° C. day/night temperature under a 16/8-hour light/dark photoperiod for six days. These conditions constitute early season heat stress. Plants were then destructively harvested and measured for fresh weight, canopy density, Δ canopy density, total dry weight and height.

[3] = 100 ppm ACC spray at Feekes stage 5, n = 8
[4] = 100 ppm ACC, vs stress control (no heat)
[5] = 100 ppm ACC, vs treatment control (heat, no ACC)
[6] = 100 ppm ACC spray at Feekes stage 5
[7] = 300 ppm ACC spray at Feekes stage 5

Compound: NC1(C(=O)O)CC1 [ACC, 1-amino-1-cyclopropanecarboxylic acid]
- % Reproductive Tillers (Apogee wheat [1]; [3]): 89.60%
- Fresh Weight (Apogee wheat [1]; [3]): 9.18 grams
- Total Dry Weight (Apogee wheat [1]; [3]): 2.12 grams
- Total Spike Number (Apogee wheat [1]; [3]): 3.13
- Total Tiller Number (Apogee wheat [1]; [3]): 2.75
- Δ Canopy Density (Apogee wheat [1]; [3]): 1.52
- Fresh Weight, percent increase over stress control (Apogee wheat [1]; [4]): (−18.8%)
- Total Dry Weight, percent increase over stress control (Apogee wheat [1]; [4]): (−16.9%)
- Total Spike Number, percent increase over stress control (Apogee wheat [1]; [4]): (−7.1%)
- Total Tiller Number, percent increase over stress control (Apogee wheat [1]; [4]): (−12.1%)
- % Reproductive Tillers, percent increase over treatment control (Apogee wheat [1]; [5]): [43.4%]
- Fresh Weight, percent increase over treatment control (Apogee wheat [1]; [5]): [19.2%]
- Total Dry Weight, percent increase over treatment control (Apogee wheat [1]; [5]): [7.6%]
- Total Spike Number, percent increase over treatment control (Apogee wheat [1]; [5]): [−3.7%]
- Total Tiller Number, percent increase over treatment control (Apogee wheat [1]; [5]): [37.5%]
- Δ Canopy Density, percent increase over treatment control (Apogee wheat [1]; [5]): [42.1%]
- % Reproductive Tillers (Apogee wheat [2]; [6]): 63.80%
- Fresh Weight (Apogee wheat [2]; [6]): 17.95 grams
- Total Dry Weight (Apogee wheat [2]; [6]): 4.31 grams
- Total Spike Number (Apogee wheat [2]; [6]): 7
- Total Tiller Number (Apogee wheat [2]; [6]): 4.38
- Δ Canopy Density (Apogee wheat [2]; [6]): 2.65%
- % Reproductive Tillers, percent increase over stress control (Apogee wheat [2]; 100 ppm ACC): (−11.5%)
- Fresh Weight, percent increase over stress control (Apogee wheat [2]; 100 ppm ACC): (4.6%)
- Total Dry Weight, percent increase over stress control (Apogee wheat [2]; 100 ppm ACC): (−5.5%)
- Total Spike Number, percent increase over stress control (Apogee wheat [2]; 100 ppm ACC): (24.3%)
- Total Tiller Number, percent increase over stress control (Apogee wheat [2]; 100 ppm ACC): (9.5%)
- Δ Canopy Density, percent increase over stress control (Apogee wheat [2]; 100 ppm ACC): (3.5%)
- % Reproductive Tillers, percent increase over treatment control (Apogee wheat [2]; 100 ppm ACC): [−0.8%]
- Fresh Weight, percent increase over treatment control (Apogee wheat [2]; 100 ppm ACC): [5.8%]
- Total Dry Weight, percent increase over treatment control (Apogee wheat [2]; 100 ppm ACC): [11.1%]
- Total Spike Number, percent increase over treatment control (Apogee wheat [2]; 100 ppm ACC): [12.0%]
- Total Tiller Number, percent increase over treatment control (Apogee wheat [2]; 100 ppm ACC): [12.9%]
- Δ Canopy Density, percent increase over treatment control (Apogee wheat [2]; 100 ppm ACC): [5.2%]
- % Reproductive Tillers (Apogee wheat [2]; [7]): 63.10%
- Fresh Weight (Apogee wheat [2]; [7]): 16.74 grams
- Total Dry Weight (Apogee wheat [2]; [7]): 4.33 grams
- Total Spike Number (Apogee wheat [2]; [7]): 6.38
- Total Tiller Number (Apogee wheat [2]; [7]): 3.88
- Δ Canopy Density (Apogee wheat [2]; [7]): 2.36%
- % Reproductive Tillers, percent increase over stress control (Apogee wheat [2]; 300 ppm ACC): (−12.5%)
- Fresh Weight, percent increase over stress control (Apogee wheat [2]; 300 ppm ACC): (−2.4%)
- Total Dry Weight, percent increase over stress control (Apogee wheat [2]; 300 ppm ACC): (−5.0%)
- Total Spike Number, percent increase over stress control (Apogee wheat [2]; 300 ppm ACC): (13.3%)
- Total Tiller Number, percent increase over stress control (Apogee wheat [2]; 300 ppm ACC): (−3.0%)
- Δ Canopy Density, percent increase over stress control (Apogee wheat [2]; 300 ppm ACC): (−7.8%)
- % Reproductive Tillers, percent increase over treatment control (Apogee wheat [2]; 300 ppm ACC): [−1.9%]
- Fresh Weight, percent increase over treatment control (Apogee wheat [2]; 300 ppm ACC): [−1.4%]
- Total Dry Weight, percent increase over treatment control (Apogee wheat [2]; 300 ppm ACC): [11.6%]
- Total Spike Number, percent increase over treatment control (Apogee wheat [2]; 300 ppm ACC): [2.1%]
- Total Tiller Number, percent increase over treatment control (Apogee wheat [2]; 300 ppm ACC): [0%]
- Δ Canopy Density, percent increase over treatment control (Apogee wheat [2]; 300 ppm ACC): [−6.3%]
- Canopy Density (Williams 82 soybean; 10 ppm ACC spray at V1): 13.24
- Fresh Weight (Williams 82 soybean; 10 ppm ACC spray at V1): 19.85 grams
- Height (Williams 82 soybean; 10 ppm ACC spray at V1): 41.07 cm
- Total Dry Weight (Williams 82 soybean; 10 ppm ACC spray at V1): 3.15 grams
- Δ Canopy Density (Williams 82 soybean; 10 ppm ACC spray at V1): 7.77
- Canopy Density, percent increase over stress control (Williams 82 soybean; 10 ppm ACC): (83.9%)
- Fresh Weight, percent increase over stress control (Williams 82 soybean; 10 ppm ACC): (32.8%)
- Height, percent increase over stress control (Williams 82 soybean; 10 ppm ACC): (30.1%)
- Total Dry Weight, percent increase over stress control (Williams 82 soybean; 10 ppm ACC): (18.9%)
- Δ Canopy Density, percent increase over stress control (Williams 82 soybean; 10 ppm ACC): (256.4%)
- Canopy Density, percent increase over treatment control (Williams 82 soybean; 10 ppm ACC): [13.6%]
- Fresh Weight, percent increase over treatment control (Williams 82 soybean; 10 ppm ACC): [6.5%]
- Height, percent increase over treatment control (Williams 82 soybean; 10 ppm ACC): [7.9%]
- Total Dry Weight, percent increase over treatment control (Williams 82 soybean; 10 ppm ACC): [6.8%]
- Δ Canopy Density, percent increase over treatment control (Williams 82 soybean; 10 ppm ACC): [22.4%]
- Canopy Density (Williams 82 soybean; 30 ppm ACC spray at V1): 12.68
- Fresh Weight (Williams 82 soybean; 30 ppm ACC spray at V1): 20.33 grams
- Height (Williams 82 soybean; 30 ppm ACC spray at V1): 38.25 cm
- Total Dry Weight (Williams 82 soybean; 30 ppm ACC spray at V1): 3.25 grams
- Δ Canopy Density (Williams 82 soybean; 30 ppm ACC spray at V1): 7.19
- Canopy Density, percent increase over stress control (Williams 82 soybean; 30 ppm ACC): (76.1%)
- Fresh Weight, percent increase over stress control (Williams 82 soybean; 30 ppm ACC): (36.0%)
- Height, percent increase over stress control (Williams 82 soybean; 30 ppm ACC): (21.1%)
- Total Dry Weight, percent increase over stress control (Williams 82 soybean; 30 ppm ACC): (22.6%)
- Δ Canopy Density, percent increase over stress control (Williams 82 soybean; 30 ppm ACC): (229.8%)
- Canopy Density, percent increase over treatment control (Williams 82 soybean; 30 ppm ACC): [8.7%]
- Fresh Weight, percent increase over treatment control (Williams 82 soybean; 30 ppm ACC): [9.1%]
- Height, percent increase over treatment control (Williams 82 soybean; 30 ppm ACC): [0.5%]
- Total Dry Weight, percent increase over treatment control (Williams 82 soybean; 30 ppm ACC): [10.2%]
- Δ Canopy Density, percent increase over treatment control (Williams 82 soybean; 30 ppm ACC): [13.2%]
- Canopy Density (Williams 82 soybean; 100 ppm ACC spray at V1): 10.90
- Fresh Weight (Williams 82 soybean; 100 ppm ACC spray at V1): 19.25 grams
- Height (Williams 82 soybean; 100 ppm ACC spray at V1): 37.95 cm
- Total Dry Weight (Williams 82 soybean; 100 ppm ACC spray at V1): 3.08 grams
- Δ Canopy Density (Williams 82 soybean; 100 ppm ACC spray at V1): 5.36
- Canopy Density, percent increase over stress control (Williams 82 soybean; 100 ppm ACC): (51.4%)
- Fresh Weight, percent increase over stress control (Williams 82 soybean; 100 ppm ACC): (28.8%)
- Height, percent increase over stress control (Williams 82 soybean; 100 ppm ACC): (20.2%)
- Total Dry Weight, percent increase over stress control (Williams 82 soybean; 100 ppm ACC): (16.2%)
- Δ Canopy Density, percent increase over stress control (Williams 82 soybean; 100 ppm ACC): (145.9%)
- Canopy Density, percent increase over treatment control (Williams 82 soybean; 100 ppm ACC): [−6.5%]
- Fresh Weight, percent increase over treatment control (Williams 82 soybean; 100 ppm ACC): [3.3%]
- Height, percent increase over treatment control (Williams 82 soybean; 100 ppm ACC): [−0.3%]
- Total Dry Weight, percent increase over treatment control (Williams 82 soybean; 100 ppm ACC): [4.4%]
- Δ Canopy Density, percent increase over treatment control (Williams 82 soybean; 100 ppm ACC): [−15.6%]
